Results as given in patent US20130052154A1, “Compositions and Methods for the Treatment of Lung Inflammation” (BOARD OF REGENTS OF THE UNIVERSITY OF NEBRASKA, priority 2011, published 2013).

Tests used:
Type in all cases: biochemical
[1] = target: T1, catalase (from bovine liver), cleavable DTSSP cross-linked cl-nanozyme with PEG-pLL50, purified (C2p) (Bos taurus, UniProt P00432); assay: Catalytic constants of purified DTSSP cross-linked catalase cl-nanozyme (C2p) from effect of H2O2 concentration on rate of H2O2 decomposition
T1 construct: purchased Calbiochem (Gibbstown, N.J.); host or cells: bovine liver
T1 sequence (P00432 2-527 limits assumed): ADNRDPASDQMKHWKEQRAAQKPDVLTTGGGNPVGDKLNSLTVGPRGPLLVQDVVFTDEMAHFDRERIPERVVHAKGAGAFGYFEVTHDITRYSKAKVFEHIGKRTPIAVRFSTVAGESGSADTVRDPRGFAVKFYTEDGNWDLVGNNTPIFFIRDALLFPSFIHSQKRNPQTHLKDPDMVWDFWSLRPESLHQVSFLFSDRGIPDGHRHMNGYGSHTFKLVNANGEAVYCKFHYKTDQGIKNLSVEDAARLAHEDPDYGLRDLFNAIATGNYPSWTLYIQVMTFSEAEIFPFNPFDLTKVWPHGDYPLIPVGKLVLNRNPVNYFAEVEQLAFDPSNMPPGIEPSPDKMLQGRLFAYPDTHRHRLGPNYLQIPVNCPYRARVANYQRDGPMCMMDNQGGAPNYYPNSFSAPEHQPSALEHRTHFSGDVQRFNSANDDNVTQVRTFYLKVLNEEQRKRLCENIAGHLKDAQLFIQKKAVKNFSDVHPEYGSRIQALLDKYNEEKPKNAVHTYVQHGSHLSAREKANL
Experimental: (§1) SOD1 (from bovine erythrocytes), hydrogen peroxide (H2O2), 2,3,5-triphenyltetrazolium chloride (TTC) and copper standards for Inductively Coupled Plasma Mass Spectroscopy (ICP-MS)— TraceCERT®, 1000 mg/L Cu in nitric acid) were from Sigma-Aldrich (St. Louis, Mo.). Catalase (from bovine liver) was from Calbiochem (Gibbstown, N.J.). PEG-pLL50 was from Alamanda Polymers™ (Huntsville, Ala.). […] Cross-linkers 3,3′-dithiobis(sulfosuccinimidylpropionate) (DTSSP) and bis(sulfosuccinimidyl)suberate (BS^3) were from Thermo Fisher Scientific (Rockford, Ill.). NAP™ desalting columns and HiPrep 16/60 Sephacryl S-400 HR column were from GE Healthcare (Piscataway, N.J.). Criterion Tris-HCl gels and Precision Plus Protein™ All Blue Standards were from Bio-Rad (Hercules, Calif.). SYPRO® Ruby protein gel stain and cell culture reagents were purchased from Invitrogen (Carlsbad, Calif.). CellTiter 96® AQueous One Solution Cell Proliferation Assay (MTS) was from Promega (Madison, Wis.). LumiMax Superoxide Anion Detection Kit was from Agilent Technologies, Inc. (Santa Clara, Calif.). All other reagents and supplies were from Fisher Scientific (Pittsburgh, Pa.) unless noted otherwise.
Enzyme and polymer stock solutions were prepared in 10 mM HEPES (pH 7.4) and 10 mM HEPES-buffered saline (HBS; pH 7.4) for SOD1 and catalase, respectively. Non-cross-linked BICs (Z+/−=2) were prepared as described (Klyachko et al. (2012) Nanomed. Nanotechnol. Biol. Med., 8:119-129). Targeted degree of cross-linking was defined as the molar ratio between cross-linker (DTSSP/BS^3) and pLL amines Precalculated amount of the respective cross-linker was dissolved in the reaction buffer (HEPES/HBS), quickly added to BICs, and the reaction mixture was briefly vortexed and incubated for 2 hours on ice. Unreacted crosslinker was desalted using NAP™ columns following manufacturer's instructions. Cl-Nanozymes were purified using size exclusion chromatography (SEC) (small/intermediate scale) or centrifugal filtration (large scale). SEC was carried out using an ÄKTA™ Fast Protein Liquid Chromatography (FPLC) (Amersham Biosciences, Piscataway, N.J.) system. DTSSP cl-nanozymes were lyophilized overnight, reconstituted in deionized water (DW), loaded onto a HiPrep 16/60 Sephacryl™ S-400 HR column and eluted using 10 mM HBS (pH 7.4) at a flow rate of 0.5 mL/minute. Prior to each experiment, the column was pre-conditioned with free block copolymer (PEG-pLL50) to minimize non-specific adsorption of the cl-nanozymes (Boeckle et al. (2004) J. Gene Med., 6:1102-1111). […] Protein concentration was determined using Micro BCA™ Protein Assay Kit. […]

[2] = target: T2, catalase (from bovine liver), native (nC) (Bos taurus, UniProt P00432); assay: Catalytic constants of native catalase (nC) from effect of H2O2 concentration on rate of H2O2 decomposition; details: H2O2 0 to 65 mM, catalase 2 μg/mL, 50 mM phosphate buffer pH 7.4, 240 nm, Lineweaver-Burk
T2 construct: purchased Calbiochem (Gibbstown, N.J.); host or cells: bovine liver
T2 sequence (P00432 2-527 limits assumed): T1 sequence (P00432 2-527 limits assumed)
Experimental: as §1

[3] = target: T3, catalase (from bovine liver), cleavable DTSSP cross-linked cl-nanozyme with PEG-pLL50, non-purified (C2) (Bos taurus, UniProt P00432); assay: Catalytic constants of DTSSP cross-linked catalase cl-nanozyme (C2) from effect of H2O2 concentration on rate of H2O2 decomposition
T3 construct: purchased Calbiochem (Gibbstown, N.J.); host or cells: bovine liver
T3 sequence (P00432 2-527 limits assumed): T1 sequence (P00432 2-527 limits assumed)
Experimental: as §1
Enzyme and polymer stock solutions were prepared in 10 mM HEPES (pH 7.4) and 10 mM HEPES-buffered saline (HBS; pH 7.4) for SOD1 and catalase, respectively. Non-cross-linked BICs (Z+/−=2) were prepared as described (Klyachko et al. (2012) Nanomed. Nanotechnol. Biol. Med., 8:119-129). Targeted degree of cross-linking was defined as the molar ratio between cross-linker (DTSSP/BS^3) and pLL amines Precalculated amount of the respective cross-linker was dissolved in the reaction buffer (HEPES/HBS), quickly added to BICs, and the reaction mixture was briefly vortexed and incubated for 2 hours on ice. Unreacted crosslinker was desalted using NAP™ columns following manufacturer's instructions. Cl-Nanozymes were purified using size exclusion chromatography (SEC) (small/intermediate scale) or centrifugal filtration (large scale). […] Protein concentration was determined using Micro BCA™ Protein Assay Kit. […]

[4] = H2O2 0 to 65 mM, catalase 2 μg/mL, 50 mM phosphate buffer pH 7.4, 240 nm, Lineweaver-Burk, purified cl-nanozyme C2p
[5] = H2O2 0 to 65 mM, catalase 2 μg/mL, 50 mM phosphate buffer pH 7.4, 240 nm, Lineweaver-Burk, non-purified cl-nanozyme C2

Question: Which results are given for `OO` [H2O2, hydrogen peroxide]?
Answer: kcat/Km lower than nC ([1]; C2p compared to native catalase (nC)): ca. 48%; kcat/Km lower than C2 ([1]; C2p compared to non-purified cl-nanozyme (C2)): ~53%; Km [1, 4]: 93.2 mM; kcat [1, 4]: 722000 s⁻¹; Km [2]: 53.2 mM; kcat [2]: 798000 s⁻¹; increase in Km value ([3]; C2 compared to native catalase (nC)): ca. 1.8 fold; Km [3, 5]: 94.1 mM; kcat [3, 5]: 1.56e+06 s⁻¹
